The values that follow come from patent publication US6667335B2, “Imidazole derivatives” (Hoffmann-La Roche Inc., priority 2001, dated 2003).

Counter-ions that a name gives are not always drawn.

Broadly, the melting point is the temperature, or range, at which the solid turns liquid.

As to `Cc1nccn1Cc1cn(-c2cc3ccccc3cn2)cn1.Cl.Cl`, the melting point was > 250 °C.
Regarding `Cc1nccn1Cc1cn(-c2ccc(SC(F)(F)F)c(Cl)c2)cn1.Cl.Cl`, the melting point was in the range of 195 to 198 °C.
Consider `Cc1cnc(C)n1Cc1cn(-c2ccc(Cl)c(Cl)c2)cn1.Cl.Cl`, for which the melting point is > 250 °C.
The value for `Cc1nccn1Cc1cn(-c2cccc(OC(F)F)c2)cn1.Cl.Cl` was 220 to 222 °C.
As to `CCc1nccn1Cc1cn(-c2ccc(OCc3ccccc3)cc2)cn1.Cl.Cl`, the melting point lay within 222 to 223 °C.
For `Cl.Cl.Clc1cccc(-n2cnc(Cn3ccnc3)c2)c1`, the melting point is > 200 °C (dec.).
As for `Cc1nccn1Cc1cn(-c2ccc3c(c2)OC(F)(F)O3)cn1.Cl.Cl`, the melting point was > 250 °C.
`CCc1nccn1Cc1cn(-c2ccc(Br)cc2)cn1.Cl.Cl`: the melting point was > 250 °C.
On to `CCc1nccn1Cc1cn(-c2ccc(OC(F)(F)F)c(Cl)c2)cn1.Cl.Cl`, for which the melting point is > 250 °C.
With `CCc1nccn1Cc1cn(-c2ccc3ncccc3c2)cn1` (as salt: sodium) [Example 221, 6-[4-(2-Ethyl-imidazol-1-ylmethyl)-imidazol-1-yl]-quinoline], the melting point is > 79 °C (dec.).
In turn, `Cc1nccn1Cc1cn(-c2ccc(SC(F)(F)F)cc2)cn1.Cl.Cl` had a melting point of 249 to 250 °C.
The value for `CSc1ccc(-n2cnc(Cn3ccnc3C)c2)cc1` (as salt: hydrochloride) [Example 27] was 242 to 243 °C; that for `COc1cc(-n2cnc(Cn3ccnc3C)c2)ccc1F.Cl.Cl` was > 220 °C (dec.).
In turn, `Cl.Cl.Clc1ccc(-n2cnc(Cn3ccnc3-c3ccccc3)c2)cc1Cl` returned a melting point of 197 to 198 °C.
The value for `CCc1nccn1Cc1cn(-c2ccc3c(c2)COC3)cn1.Cl.Cl` was > 108 °C (dec.).
The compound `Cc1nccn1Cc1cn(-c2ccc(Cl)cn2)cn1` (as salt: sodium) [Example 212, 5-Chloro-2-[4-(2-methyl-imidazol-1-ylmethyl)-imidazol-1-yl]-pyridine] gave a melting point of 192 to 196 °C.
In turn, `Cc1ccc(-n2cnc(Cn3ccnc3C)c2)cc1C.Cl.Cl` displayed a melting point of 249 to 251 °C.
On to `CCc1nccn1Cc1cn(-c2ccc(Cl)c(C(F)(F)F)c2)cn1.Cl.Cl`, for which the melting point is 179 to 180 °C.
As for `CCc1nccn1Cc1cn(-c2cnc3ccccc3c2)cn1` (as salt: sodium) [Example 210, 3-[4-(2-Ethyl-imidazol-1-ylmethyl)-imidazol-1-yl]-quinoline], the melting point lay within 132 to 136 °C.
For `CCc1nccn1Cc1cn(-c2cccc(C(F)(F)F)c2)cn1.Cl.Cl`, the melting point lay in the range of 216 to 218 °C.
For `CCc1nccn1Cc1cn(-c2ccc(OC(F)(F)F)cc2)cn1.Cl.Cl` the value was 216 to 218 °C; for `COc1ccc(-n2cnc(Cn3ccnc3C)c2)cc1Cl.Cl.Cl`, 240 to 241 °C.
With `Cl.Cl.FC(F)(F)c1ccc(-n2cnc(Cn3ccnc3)c2)cc1`, the melting point fell in the range of 220 to 222 °C.
For `CCc1nccn1Cc1cn(-c2cccc3cccnc23)cn1` (as salt: sodium) [Example 223, 8-[4-(2-Ethyl-imidazol-1-ylmethyl)-imidazol-1-yl]-quinoline] the value was 78 to 81 °C; for `COc1cc(-n2cnc(Cn3ccnc3)c2)ccc1C.Cl.Cl`, 249 to 251 °C.
As to `CC(=O)Nc1nccn1Cc1cn(-c2ccc(Cl)c(Cl)c2)cn1` [Example 110, N-{1-[1-(3,4-Dichloro-phenyl)-1H-imidazol-4-yl-methyl]-1H-imidazol-2-yl}-acetamide], the melting point was > 236 °C (dec.).
Consider `Cc1nccn1Cc1cn(-c2ccc(C(F)(F)F)cc2)cn1.Cl.Cl`, for which the melting point is 246 to 248 °C.
With `CCc1nccn1Cc1cn(-c2ccc3ccccc3n2)cn1` (as salt: sodium) [Example 205, 2-[4-(2-Ethyl-imidazol-1-ylmethyl)-imidazol-1-yl]-quinoline], the melting point is > 80 °C (dec.).
Turning to `Cc1nccn1Cc1cn(-c2ccc([N+](=O)[O-])cc2)cn1.Cl.Cl`, the melting point was > 250 °C.
For `Cl.Cl.FC(F)(F)Oc1cccc(-n2cnc(Cn3ccnc3)c2)c1`, the melting point fell in the range of 233 to 234 °C.
The value for `CCc1nccn1Cc1cn(-c2ccc(F)c(C(F)(F)F)c2)cn1.Cl.Cl` was > 238 °C (dec.); that for `Cl.Cl.Fc1cc(Cl)ccc1-n1cnc(Cn2ccnc2)c1` was > 212 °C (dec.).
Turning to `Cc1nccn1Cc1cn(-c2ccc(-c3ccccc3)cc2)cn1.Cl.Cl`, the melting point lay in the range of 169 to 175 °C.
`Cc1cc(-n2cnc(Cn3ccnc3)c2)ccc1F.Cl.Cl` came in with a melting point of 242 to 243 °C.
For `CCc1nccn1Cc1cn(-c2ccc(C)c(C)c2)cn1.Cl.Cl` the value was > 250 °C.
On to `Cl.Cl.Fc1ccc(-n2cnc(Cn3ccnc3)c2)cc1C(F)(F)F`, for which the melting point was > 246 °C (dec.).
On to `CCc1nccn1Cc1cn(-c2ccc(C)c(OC)c2)cn1.Cl.Cl`, for which the melting point is > 250 °C.
In turn, `Cl.Cl.Fc1cc(-n2cnc(Cn3ccnc3)c2)cc(C(F)(F)F)c1` gave a melting point of 233 to 234 °C.
For the compound `CSc1nccn1Cc1cn(-c2ccc(Cl)c(C)c2)cn1.Cl.Cl`, the melting point is 202 to 204 °C (dec.).
The value for `Cl.Cl.Fc1ccc(-n2cnc(Cn3ccnc3)c2)cc1Cl` was 210 to 212 °C.
Regarding `CNc1nccn1Cc1cn(-c2ccc(Cl)c(Cl)c2)cn1.Cl`, the melting point is > 250 °C.
For `Cc1ccc(-n2cnc(Cn3ccnc3C)c2)cc1.Cl.Cl`, the melting point is > 250 °C.
`Cc1ccc(-n2cnc(Cn3ccnc3)c2)cc1.Cl.Cl`: the melting point was 228 to 229 °C.
Consider `CCc1nccn1Cc1cn(-c2ccc(OC)c(C(F)(F)F)c2)cn1.Cl.Cl`, for which the melting point was > 226 °C (dec.).
Regarding `CCc1nccn1Cc1cn(-c2ccc(C)c(F)c2)cn1.Cl.Cl`, the melting point was > 250 °C.
For `COc1ccc(-n2cnc(Cn3ccnc3)c2)cc1Cl.Cl.Cl` the value was 245 to 246 °C.
For `Cc1nccn1Cc1cn(-c2ccc3ccccc3c2)cn1` (as salt: hydrochloride) [Example 155, 1H-Imidazole, 2-Methyl-1-[[1-(naphtalen-2-yl)-1H-imidazol-4-yl]methyl]-, Hydrochloride (1:2)] the value was 247 to 248 °C.
`Cl.Cl.c1cn(Cc2cn(-c3ccc4c(c3)OCO4)cn2)cn1`: the melting point is 197 to 198 °C.
`Cl.Cl.c1ccc(COc2ccc(-n3cnc(Cn4ccnc4)c3)cc2)cc1` showed a melting point of 224 to 225 °C.
In turn, `COc1cc(-n2cnc(Cn3ccnc3)c2)ccc1F.Cl.Cl` had a melting point of 174 to 178 °C.
For `Cc1nccn1Cc1cn(-c2ccc3c(c2)COC3)cn1.Cl.Cl` the value was > 250 °C; for `c1ccc2nc(-n3cnc(Cn4ccnc4)c3)ccc2c1` (as salt: sodium) [Example 206, 2-(4-Imidazol-1-ylmethyl-imidazol-1-yl)-quinoline], > 150 °C (dec.).
Turning to `CCc1nccn1Cc1cn(-c2ccc(F)c(C(C)(F)F)c2)cn1` (as salt: hydrochloride) [Example 151, 1H-Imidazole, 1-[[1-1-[3-(1,1-Difluoroethyl)-4-fluorophenyl]-1H-imidazol-4-yl]methyl]-ethyl-, Hydrochloride (1:2)], the melting point is > 200 °C (dec.).
`Cl.Cl.Fc1cc(Br)cc(-n2cnc(Cn3ccnc3)c2)c1`: the melting point is > 200 °C (dec.).
`CCc1nccn1Cc1cn(-c2cccc(SC(F)(F)F)c2)cn1` (as salt: hydrochloride) [Example 143] had a melting point of 234 to 236 °C.
Compound `CCc1nccn1Cc1cn(-c2ccc(SC(F)(F)F)cc2)cn1.Cl.Cl` came in with a melting point of 183 to 185 °C.
`CCc1nccn1Cc1cn(-c2ccc(C(F)(F)F)cc2)cn1.Cl.Cl` registered a melting point of 240 to 242 °C.
`COc1cccc(-n2cnc(Cn3ccnc3)c2)c1.Cl.Cl` showed a melting point of 219 to 220 °C.
As for `Cc1nccn1Cc1cn(-c2ccc(Cl)c(C(F)(F)F)c2)cn1.Cl.Cl`, the melting point was > 250 °C.
Compound `CCc1nccn1Cc1cn(-c2ccc(C)c(Cl)c2)cn1.Cl.Cl` returned a melting point of 178 to 179 °C.
The value for `Cc1ccc(-n2cnc(Cn3ccnc3)c2)cc1C` (as salt: hydrochloride) [Example 21] was 218 to 219 °C.
For `Cc1nccn1Cc1ccn(-c2ccc(Cl)c(Cl)c2)n1.Cl` the value was 204 to 205 °C.
Compound `CCc1nccn1Cc1cn(-c2ccc(Cl)cc2)cn1.Cl.Cl` gave a melting point of 200 to 201 °C.
`Cl.Cl.FC(F)Oc1cccc(-n2cnc(Cn3ccnc3)c2)c1` gave a melting point of 205 to 206 °C.
The compound `CCc1nccn1Cc1cn(-c2cccc(C(F)F)c2)cn1.Cl.Cl` registered a melting point of 219 to 220 °C.
`Cc1nccn1Cc1cn(-c2ccc(OC(F)F)cc2)cn1.Cl.Cl` showed a melting point of 228 to 229 °C.
Compound `Cc1nccn1Cc1cn(-c2ccc(Cl)cc2F)cn1.Cl.Cl` showed a melting point of 235 to 236 °C.
Regarding `Cc1ncn(Cc2cn(-c3ccc(Cl)c(Cl)c3)cn2)c1C.Cl.Cl`, the melting point was > 250 °C.
With `Cl.Cl.Clc1ccc(-n2cnc(Cn3ccnc3)c2)cc1Cl`, the melting point is > 250 °C.
For the compound `CCc1nccn1Cc1cn(-c2cccc(OC)c2)cn1.Cl.Cl`, the melting point fell in the range of 246 to 248 °C.
The value for `CCc1nccn1Cc1cn(-c2ccc(OC(F)F)cc2)cn1.Cl.Cl` was 199 to 200 °C.
Consider `CSc1cccc(-n2cnc(Cn3ccnc3C)c2)c1.Cl.Cl`, for which the melting point is > 200 °C (dec.).
As to `COc1ccc(-n2cnc(Cn3ccnc3C)c2)cc1F.Cl.Cl`, the melting point was in the range of 238 to 240 °C.
Regarding `CCc1nccn1Cc1cn(-c2cccc(OC(F)(F)F)c2)cn1.Cl.Cl`, the melting point was in the range of 237 to 239 °C.
With `CCc1nccn1Cc1cn(-c2cccc(C(C)(C)C)c2)cn1.Cl.Cl`, the melting point is 205 °C (dec.).
For the compound `Cc1ccc(-n2cnc(Cn3ccnc3C)c2)cc1F.Cl.Cl`, the melting point was > 250 °C.
With `CCc1nccn1Cc1cn(-c2ccc(C(C)C)c(C)c2)cn1.Cl.Cl`, the melting point is > 180 °C (dec.).
